{"source": "ChEMBL document CHEMBL5543174", "about": "“A Nonbactericidal Anionic Antimicrobial Peptide Provides Prophylactic and Therapeutic Efficacies against Bacterial Infections in Mice by Immunomodulatory-Antithrombotic Duality” (J Med Chem, 2024)", "key": {"Mus musculus [1]": {"tested_on": "Mus musculus", "test": "Induction of chemotaxis in C57BL/6 mouse assessed as upregulation of MCP-1 expression in peritoneal lavage at 10 mg/kg,ip administration measured at 5 to 24 hrs by ELISA", "format": "functional, organism-based", "conditions": "time 5-24 hrs"}, "Staphylococcus aureus [2]": {"tested_on": "Staphylococcus aureus", "test": "Antibacterial activity against Methicillin-resistant Staphylococcus aureus infected in C57BL/6 mouse assessed as reduction in TNF-alpha level in serum at 10 mg/kg,ip pre-administrated 5 hrs before bacterial infection measured after 24 hrs by ELISA", "format": "functional, organism-based", "conditions": "time 29.0 hrs"}, "Bacillus subtilis": {"tested_on": "Bacillus subtilis", "test": "Antimicrobial activity against Bacillus subtilis ATCC6633 assessed as inhibition of microbial growth at <= 200 ug/ml incubated for 18 hrs by micro-broth dilution method", "format": "functional, organism-based", "conditions": "dose <= 200.0 µg/ml"}, "Peritoneal macrophage [3]": {"tested_on": "Peritoneal macrophage", "test": "Induction of chemotaxis in mouse Peritoneal macrophage assessed as upregulation of MCP-1 production at 100 ug/ml preincubated with MTS510 followed by compound addition by ELISA", "format": "functional, cell-based", "conditions": "dose 100.0 µg/ml"}, "Mus musculus [4]": {"tested_on": "Mus musculus", "test": "Immunomodulatory activity in clodronate liposome immunosuppressed C57BL/6 mouse with monocyte depletion model assessed as increase in number of monocyte in peritoneal lavage at 10 mg/kg,ip administration measured after 24 hrs by flow cytometry", "format": "functional, organism-based"}, "Staphylococcus aureus [5]": {"tested_on": "Staphylococcus aureus", "test": "Antibacterial activity against Methicillin-resistant Staphylococcus aureus infected in C57BL/6 mouse assessed as reduction in inflammatory injury in lung at 10 mg/kg,ip administrated 5 hrs after bacterial infection measured after 24 hrs by hematoxylin and eosin staining based analysis", "format": "functional, organism-based", "conditions": "time 19.0 hrs"}, "Staphylococcus aureus [6]": {"tested_on": "Staphylococcus aureus", "test": "Antimicrobial activity against Staphylococcus aureus ATCC 25923 assessed as inhibition of microbial growth at <= 200 ug/ml incubated for 18 hrs by micro-broth dilution method", "format": "functional, organism-based", "conditions": "dose <= 200.0 µg/ml"}, "Peritoneal macrophage [7]": {"tested_on": "Peritoneal macrophage", "test": "Immunomodulatory activity in mouse Peritoneal macrophage assessed as decrease in LPS-induced IL-6 production at 25 to 100 ug/ml incubated for 6 hrs by ELISA", "format": "functional, cell-based", "conditions": "dose 25-100 µg/ml"}, "Peritoneal macrophage [8]": {"tested_on": "Peritoneal macrophage", "test": "Immunomodulatory activity in mouse Peritoneal macrophage assessed as decrease in LPS-induced IL-1beta production at 25 to 100 ug/ml incubated for 6 hrs by ELISA", "format": "functional, cell-based", "conditions": "dose 25-100 µg/ml"}, "Staphylococcus aureus [9]": {"tested_on": "Staphylococcus aureus", "test": "Antibacterial activity against Staphylococcus aureus ATCC 25923 infected in C57BL/6 mouse assessed as reduction in IL-1beta level in peritoneal fluid at 10 mg/kg,ip pre-administrated 5 hrs before bacterial infection measured after 24 hrs by ELISA", "format": "functional, organism-based", "conditions": "time 29.0 hrs"}, "Peritoneal macrophage [10]": {"tested_on": "Peritoneal macrophage", "test": "Immunoregulatory activity in mouse Peritoneal macrophage assessed as upregulation of IkappaBalpha phosphorylation incubated for 1 hr by Western blotting analysis", "format": "functional, cell-based"}, "Plasma": {"tested_on": "Plasma", "test": "Anticoagulation activity in human platelet poor plasma assessed as elongation of activated partial thromboplastin time at 100 ug/ml measured after 5 mins", "format": "functional, cell-free", "conditions": "dose 100.0 µg/ml"}, "Peritoneal macrophage [11]": {"tested_on": "Peritoneal macrophage", "test": "Induction of chemotaxis in mouse Peritoneal macrophage assessed as upregulation of MCP-1 gene expression incubated for 6 hrs by qPCR analysis", "format": "functional, cell-based"}, "Lymphocyte": {"tested_on": "Lymphocyte", "test": "Immunomodulatory activity in mouse mesenteric lymph node derived lymphocyte assessed as increase in lymphocyte proliferation at < 200 ug/ml incubated for 24 hrs by CCK-8 assay", "format": "functional, cell-based", "conditions": "dose < 200.0 µg/ml"}, "Mus musculus [12]": {"tested_on": "Mus musculus", "test": "Immunomodulatory activity in clodronate liposome immunosuppressed C57BL/6 mouse with monocyte depletion model assessed as increase in number of monocyte in peritoneal lavage at 10 mg/kg,ip administration measured after 12 hrs by flow cytometry", "format": "functional, organism-based"}, "Peritoneal macrophage [13]": {"tested_on": "Peritoneal macrophage", "test": "Immunomodulatory activity in mouse Peritoneal macrophage assessed as decrease in LTA-induced IL-6 production at 25 to 100 ug/ml incubated for 6 hrs by ELISA", "format": "functional, cell-based", "conditions": "dose 25-100 µg/ml"}, "Mus musculus [14]": {"tested_on": "Mus musculus", "test": "Immunomodulatory activity in clodronate liposome immunosuppressed C57BL/6 mouse with monocyte depletion model assessed as increase in number of monocyte in peritoneal lavage at 10 mg/kg,ip administration measured after 5 hrs by flow cytometry", "format": "functional, organism-based"}, "Neutrophil [15]": {"tested_on": "Neutrophil", "test": "Induction of chemotaxis in mouse bone marrow derived neutrophil assessed as increase in neutrophil migration at 25 to 100 ug/ml incubated for 8 hrs by crystal violet staining based direct transwell assay", "format": "functional, cell-based", "conditions": "dose 25-100 µg/ml"}, "Peritoneal macrophage [16]": {"tested_on": "Peritoneal macrophage", "test": "Induction of chemotaxis in mouse Peritoneal macrophage assessed as upregulation of CXCL1 expression incubated for 6 hrs by ELISA", "format": "functional, cell-based"}, "Candida albicans [17]": {"tested_on": "Candida albicans", "test": "Antimicrobial activity against Candida albicans ATCC 2002 assessed as reduction in microbial colony forming unit at 200 ug/ml incubated for 1 to 4 hrs by time-kill kinetics based analysis", "format": "functional, organism-based", "conditions": "dose 200.0 µg/ml, time 1-4 hrs"}, "Escherichia coli [18]": {"tested_on": "Escherichia coli", "test": "Antimicrobial activity against Carbapenem-resistant Escherichia coli assessed as reduction in metabolic activity at < 200 ug/ml incubated for 1 to 4 hrs by CCK-8 assay", "format": "functional, organism-based", "conditions": "dose < 200.0 µg/ml, time 1-4 hrs"}, "Peritoneal macrophage [19]": {"tested_on": "Peritoneal macrophage", "test": "Immunomodulatory activity in mouse Peritoneal macrophage assessed as decrease in LPS-induced TNF-alpha production at 25 to 100 ug/ml incubated for 6 hrs by ELISA", "format": "functional, cell-based", "conditions": "dose 25-100 µg/ml"}, "Escherichia coli [20]": {"tested_on": "Escherichia coli", "test": "Antibacterial activity against Escherichia coli ATCC 25922 infected in C57BL/6 mouse assessed as reduction in inflammatory injury in lung at 10 mg/kg,ip administrated 5 hrs after bacterial infection measured after 24 hrs by hematoxylin and eosin staining based analysis", "format": "functional, organism-based", "conditions": "time 19.0 hrs"}, "Staphylococcus aureus [21]": {"tested_on": "Staphylococcus aureus", "test": "Antibacterial activity against Methicillin-resistant Staphylococcus aureus infected in C57BL/6 mouse assessed as reduction in IL-6 level in serum at 10 mg/kg,ip administrated 5 hrs after bacterial infection measured after 24 hrs by ELISA", "format": "functional, organism-based", "conditions": "time 19.0 hrs"}, "Escherichia coli [22]": {"tested_on": "Escherichia coli", "test": "Antibacterial activity against Carbapenem-resistant Escherichia coli infected in C57BL/6 mouse with clodronate liposome-induced monocyte depletion model assessed as decrease in bacterial burden in peritoneal cavity at 10 mg/kg,ip pre-administrated 5 hrs before bacterial infection measured after 24 hrs", "format": "functional, organism-based", "conditions": "time 29.0 hrs"}, "Mus musculus [23]": {"tested_on": "Mus musculus", "test": "Antithrombotic activity in carrageenan-induced tail thrombosis BALB/c mouse model assessed as reduction in thrombus length at 10 mg/kg,ip administration measured for 6 to 48 hrs", "format": "functional, organism-based", "conditions": "time 6-48 hrs"}, "Serum": {"tested_on": "Serum", "test": "Immunomodulatory activity in mouse serum assessed as change on C3a level at 25 to 200 ug/ml incubated for 1 hr by ELISA based complement assay", "format": "functional, cell-free", "conditions": "dose 25-200 µg/ml"}, "Candida albicans [24]": {"tested_on": "Candida albicans", "test": "Antimicrobial activity against Candida albicans ATCC 2002 assessed as inhibition of microbial growth at <= 200 ug/ml incubated for 18 hrs by micro-broth dilution method", "format": "functional, organism-based", "conditions": "dose <= 200.0 µg/ml"}, "Peritoneal macrophage [25]": {"tested_on": "Peritoneal macrophage", "test": "Induction of chemotaxis in mouse Peritoneal macrophage assessed as upregulation of CXCL2 production at 100 ug/ml preincubated with MTS510 followed by compound addition by ELISA", "format": "functional, cell-based", "conditions": "dose 100.0 µg/ml"}, "Escherichia coli [26]": {"tested_on": "Escherichia coli", "test": "Antibacterial activity against Carbapenem-resistant Escherichia coli infected in C57BL/6 mouse assessed as reduction in inflammatory injury in lung at 10 mg/kg,ip pre-administrated 5 hrs before bacterial infection measured after 24 hrs by hematoxylin and eosin staining based analysis", "format": "functional, organism-based", "conditions": "time 29.0 hrs"}, "Neutrophil [27]": {"tested_on": "Neutrophil", "test": "Induction of phagocytosis in mouse bone marrow derived neutrophil cultured with CFSE-labeled Carbapenem-resistant Escherichia coli incubated for 1.5 hrs followed by bacterial exposure for 1 hr by flow cytometry", "format": "functional, cell-based", "conditions": "time 2.5 hrs"}, "Escherichia coli [28]": {"tested_on": "Escherichia coli", "test": "Antibacterial activity against Carbapenem-resistant Escherichia coli infected in C57BL/6 mouse assessed as reduction in bacterial load at 10 mg/kg,ip pre-administrated 5 hrs before bacterial infection", "format": "functional, organism-based"}}, "note": "Activity calls are given as the source filed them. No cut-off for these calls is given here."}
{"smiles": "CC[C@H](C)[C@H](NC(=O)[C@@H]1CSSC[C@H](NC(=O)[C@H](CCC(=O)O)NC(=O)[C@@H](NC(=O)[C@H](CCCCN)NC(=O)[C@H](Cc2c[nH]cn2)NC(=O)[C@@H](NC(=O)[C@H](CCCCN)NC(=O)[C@H](CCC(=O)O)NC(=O)[C@H](C)NC(=O)[C@H](CCC(=O)O)NC(=O)[C@H](CCC(=O)O)NC(=O)[C@H](CCC(=O)O)NC(=O)[C@H](C)N)[C@@H](C)O)[C@@H](C)O)C(=O)N[C@@H](CC(C)C)C(=O)N[C@@H](CCC(=O)O)C(=O)N1)C(=O)N[C@@H](Cc1ccccc1)C(=O)N[C@H](C(=O)N[C@@H](CC(C)C)C(=O)N[C@@H](CC(C)C)C(=O)N1CCC[C@H]1C(=O)N1CCC[C@@H]1C(=O)N[C@H](C)C(=O)O)[C@@H](C)O", "values": [{"measurement": "Activity", "setting": "Mus musculus [1]", "result": "inactive"}, {"measurement": "Activity", "setting": "Staphylococcus aureus [2]", "result": "Active"}, {"measurement": "Activity", "setting": "Bacillus subtilis", "result": "inactive"}, {"measurement": "Activity", "setting": "Peritoneal macrophage [3]", "result": "Active"}, {"measurement": "Activity", "setting": "Mus musculus [4]", "result": "inactive"}, {"measurement": "Activity", "setting": "Staphylococcus aureus [5]", "result": "Active"}, {"measurement": "Activity", "setting": "Staphylococcus aureus [6]", "result": "inactive"}, {"measurement": "Activity", "setting": "Peritoneal macrophage [7]", "result": "inactive"}, {"measurement": "Activity", "setting": "Peritoneal macrophage [8]", "result": "inactive"}, {"measurement": "Activity", "setting": "Staphylococcus aureus [9]", "result": "Active"}, {"measurement": "Activity", "setting": "Peritoneal macrophage [10]", "result": "Dose-Dependent Effect"}, {"measurement": "Activity", "setting": "Plasma", "result": "inactive"}, {"measurement": "Activity", "setting": "Peritoneal macrophage [11]", "result": "Dose-Dependent Effect"}, {"measurement": "Activity", "setting": "Lymphocyte", "result": "inactive"}, {"measurement": "Activity", "setting": "Mus musculus [12]", "result": "Active"}, {"measurement": "Activity", "setting": "Peritoneal macrophage [13]", "result": "inactive"}, {"measurement": "Activity", "setting": "Mus musculus [14]", "result": "Active"}, {"measurement": "Activity", "setting": "Neutrophil [15]", "result": "inactive"}, {"measurement": "Activity", "setting": "Peritoneal macrophage [16]", "result": "Dose-Dependent Effect"}, {"measurement": "Activity", "setting": "Candida albicans [17]", "result": "inactive"}, {"measurement": "Activity", "setting": "Escherichia coli [18]", "result": "inactive"}, {"measurement": "Activity", "setting": "Peritoneal macrophage [19]", "result": "inactive"}, {"measurement": "Activity", "setting": "Escherichia coli [20]", "result": "Active"}, {"measurement": "Activity", "setting": "Staphylococcus aureus [21]", "result": "Active"}, {"measurement": "Activity", "setting": "Escherichia coli [22]", "result": "inactive"}, {"measurement": "Activity", "setting": "Mus musculus [23]", "result": "Active"}, {"measurement": "Activity", "setting": "Serum", "result": "inactive"}, {"measurement": "Activity", "setting": "Candida albicans [24]", "result": "inactive"}, {"measurement": "Activity", "setting": "Peritoneal macrophage [25]", "result": "Active"}, {"measurement": "Activity", "setting": "Escherichia coli [26]", "result": "Active"}, {"measurement": "Activity", "setting": "Neutrophil [27]", "result": "Dose-Dependent Effect"}, {"measurement": "Activity", "setting": "Escherichia coli [28]", "result": "Active"}]}
